The values below come from patent US20220257642A1, “METHODS AND COMPOSITIONS FOR GENERATING NITRIC OXIDE AND USES THEREOF TO DELIVER NITRIC OXIDE VIA THE RESPIRATORY TRACT” (THIRTY RESPIRATORY LIMITED, priority 2019, published 2022).

In series [1] the test system is SARS-CoV-2 clinical isolate. Kind of series: SARS-CoV-2 virus yield reduction assay in Vero E6 cells. Type of series: cell-based. How it is done: At time 0 hr, Vero E6 cells were infected with virus in presence of the formulation or controls and incubated for 1 hour. After this incubation period the inoculum was removed and the cells were washed. Fresh formulation or controls were then added to the washed cells. At 24 hours post infection, Vero E6 cell supernatants were harvested and titrated, and the virus titration was incubated for 6 days prior to readout to determine any virus yield reduction. Separate tests were performed at four MOIs including 3.0 and 0.3, although only those two MOIs were titrated. The readout was by crystal violet (cell monolayer) staining, followed by CPE scoring.

For the molecule `O=C(O)CC(O)(CC(=O)O)C(=O)O` [citric acid pH 5.8, citric acid], the “Cytotoxicity on the LDH assay” value with Vero E6 cells is recorded as “low cytotoxicity”. The “In vitro antiviral action against SARS-CoV-2” value in series [1] (FIGS. 33 and 34) is given as “high in vitro antiviral action”.
With `CCN(CC)CCCC(C)Nc1ccnc2cc(Cl)ccc12` (stereo not shown) [chloroquine, Chloroquine phosphate], the SARS-CoV-2 virus titre result in series [1] (FIG. 33, Run 1, MOI 3.0, 24 hours) was “limit of detection”; in series [1] (FIG. 34, Run 2, MOI 3.0 and MOI 0.3, 48 hours), “limit of detection”.
